Source: PMC11910330, “Familial Alzheimer’s disease mutations in amyloid precursor protein impair calcineurin signaling to NMDA receptors” (The Journal of Biological Chemistry, 2024)

Assays:
GluN1A/GluN2A NMDARs = experiment: Whole-cell recording of glutamate-evoked NMDAR currents in HEK 293 cells expressing GluN1A/GluN2A; type: cell-based
Protocol: HEK 293 cells (ATCC Cat# CRL-1573) were obtained at passage 37 and used for a maximum of six passages. Cell cultures were maintained in Dulbecco’s modified Eagle’s medium (DMEM) with 10% fetal bovine serum (Life Technologies, Inc.) and penicillin/streptomycin (P/S). For electrophysiology, cells were plated at low density (∼50,000 cells/ml) on 15-mm round glass coverslips in 12-well plates. Cells were transfected using the Ca^2+ phosphate method with 1 μg of each construct per coverslip. For control cells, 0.3 μg of pEGFP (GenBank U55762.1) was included as a transfection marker. Epifluorescence was used to confirm the expression of the corresponding APP family members and APP FAD mutants. For biochemistry, HEK 293 cells were plated at ∼50% confluence on 10 cm dishes. HEK 293 cells were transfected by the Ca^2+ phosphate method. For these experiments, 4 μg of each construct was used, with 1 μg of mCherry (GenBank AY678264.1) used as a transfection marker. Experiments were performed 24 h after transfection.
Twenty-four hours after transfection, HEK 293 cells were visually selected for recording by GFP epifluorescence. […] whole-cell recordings of NMDA receptor currents were obtained with a Multiclamp 700A amplifier (Molecular Devices) and digitized through a Digidata 1332A using Clampex 10.3 software. Patch pipettes (2–5 MΩ for HEK 293 cells; 3–6 MΩ for neurons) contained (in mM) the following: 140 Cs methanesulfonate, 10 Hepes, five ATP (Na salt), 5 MgCl2, and 0.2 EGTA + 0.01 CaCl2 or 10 BAPTA + 0.2 CaCl2 (pH 7.4). QX-314 (2 mM) was included in the pipette solution for neuronal recordings to ensure the block of voltage-gated Na^+ currents. The extracellular solution contained (in mM) 150 NaCl, 5 KCl, 1.8 CaCl2, 10 Hepes, 11.1 glucose, 0.1 glycine (pH 7.4) and flowed at a rate of 1 to 2 ml/min. For neuronal recordings, this solution was supplemented with tetrodotoxin (0.3 μM), NBQX (10 μM), and picrotoxin (100 μM), to block voltage-gated Na^+ channels, AMPA receptors, and GABA receptors, respectively. HEK cells were lifted from the coverslip after establishment of the whole-cell configuration, to speed solution exchange, and placed ∼20 μm from the mouth of a series of flow pipes, which were controlled by solenoid valves and moved into position by a piezoelectric bimorph. With this configuration, solution exchanges were accomplished within 10 to 12 ms as assessed by the rise time (20–80%) of whole-cell agonist-evoked current responses. Flow pipes were lowered to within ∼50 μm of the surface of the coverslip and placed ∼100 to 150 μm from the soma of the cell. Currents were digitized at 2 kHz and filtered at 1 kHz. Series resistance (90–95% HEK cells; 60–70% neurons) and whole-cell capacitance compensation were employed, and input resistance was routinely monitored by 5 mV hyperpolarizing jumps between agonist applications. Cells showing sudden shifts in these parameters were discarded. Experiments were performed at a holding potential of −60 mV at 20 °C. Currents were elicited by a 3 s (5 s for neurons) application of glutamate (1 mM) in the extracellular recording solution. Desensitization was quantified as the ratio of average current remaining in the last 50 ms of the agonist application to the peak current using Clampfit 10.3 software. […] Current density was calculated by dividing the peak current by the compensated whole-cell capacitance.

[1] = tested on: human recombinant GST-CaN; experiment: Peptide/CaN interaction assay (biotinylated peptides on streptavidin beads, GST-CaN pull-down, Western blot); type: binding; settings: for Western blot data following CaN interaction with biotinylated peptides, (signal for each/signal for CaN standard) * 40%: biotinylated APP peptides, GST-CaN pull-down
Text: Recombinant rabbit monoclonal to APP (clone Y188; Abcam cat# ab32136; 1:5000 dilution), rabbit polyclonal to APLP1 (Proteintech cat # 12305-2-AP; 1:1000 dilution), and rabbit polyclonal to APLP2 (Proteintech cat # 15041-1-A; 1:500 dilution) were used to detect native APP family members on western blots or recombinant GFP-tagged APP family members as validation (see Fig. S1). A horseradish peroxidase (HRP)-conjugated goat anti-rabbit antibody (Sigma-Aldrich Cat# 12-348; 1:10,000 dilution) was used as secondary antibody for these western blots, while an HRP-conjugated mouse monoclonal antibody to GFP (Invitrogen cat # MA 515256HRP; 1:1000 dilution) was used to independently verify the expression of GFP or GFP-tagged APP family members. A mouse monoclonal antibody CaN (BD Biosciences Cat# 556350; 1:1000 dilution) was used for the detection of native and recombinant CaN on western blots and for co-immunoprecipitation and peptide-based interaction assays experiments, while nonspecific mouse IgG (Thermo Fisher Scientific Cat# 02-6502) was used as a control. An HRP-conjugated goat anti-mouse antibody (Sigma-Aldrich Cat# 12-349; 1:10,000 dilution) […] was used as secondary antibody for these western blots, while HRP-conjugated protein G (Sigma-Aldrich cat # 18-161; 1:5000 dilution) was used for the secondary detection of CaN in co-immunoprecipitation experiments. A mouse monoclonal anti-Flag antibody (Sigma-Aldrich Cat# F1804) was used for co-immunoprecipitations of recombinant APP family members, while an HRP-conjugated version of this antibody (Sigma-Aldrich Cat# A8592; 1:1000) was used for the detection on western blots.
The N-terminally biotinylated AKAP79(330-357) and Ht31peptides were synthesized by Biomolecules Midwest and used as positive and negative controls for CaN interaction as previously described ([20]).
Either PBS with fresh 0.1% Tween-20 and 0.1% bovine serum albumin added or a modified IP buffer (150 mM NaCl, 10 mM Hepes; 5 mM EDTA; pH 7.4) with fresh 0.5% CHAPSO and 0.1% bovine serum albumin was used for these assays. […] Streptavidin-coated dynabeads (20 μl; Invitrogen cat # 65601) were washed and then incubated with 10 μg biotinylated peptides for 15 min at 4 °C in 200 μl of buffer. Beads were washed rapidly (400 μl; 3×) to remove unbound peptide and then incubated with 200 ng human recombinant GST-CaN in 200 μl buffer for 30 min at 4 °C. Following three washes (400 μl; 5 min each), complexes were eluted in 40 μl 2× Laemmli buffer, and samples were separated by SDS-PAGE and analyzed by Western blotting as above. Blots were probed with the mouse monoclonal anti-CaN antibody followed by anti-mouse HRP for secondary detection and visualized by enhanced chemiluminescence and digitally acquired as above. For each blot, the intensity of each band was normalized to that of from the GST-CaN standard (80 ng). As this standard represented 40% of the 200 ng input, the ratio was multiplied by 40 to achieve the percent of CaN recovered.

Compound | Western blot data following CaN interaction with biotinylated peptides, (signal for each/signal for CaN standard) * 40% ([1]; mean of n = 6) | Western blot data following CaN interaction with biotinylated peptides, (signal for each/signal for CaN standard) * 40% ([1]; replicate 1) | Western blot data following CaN interaction with biotinylated peptides, (signal for each/signal for CaN standard) * 40% ([1]; replicate 2) | Western blot data following CaN interaction with biotinylated peptides, (signal for each/signal for CaN standard) * 40% ([1]; replicate 3) | Western blot data following CaN interaction with biotinylated peptides, (signal for each/signal for CaN standard) * 40% ([1]; replicate 4) | Western blot data following CaN interaction with biotinylated peptides, (signal for each/signal for CaN standard) * 40% ([1]; replicate 5) | Western blot data following CaN interaction with biotinylated peptides, (signal for each/signal for CaN standard) * 40% ([1]; replicate 6) | other results
O=C(O)CN(CC(=O)O)c1ccccc1OCCOc1ccccc1N(CC(=O)O)CC(=O)O [BAPTA] | – | – | – | – | – | – | – | effect on NMDAR current amplitude (in words) (GluN1A/GluN2A NMDARs; 10 mM BAPTA in pipette, APP-expressing cells, within 1–3 min): increase in the amplitude of GluN1A/GluN2A currents; effect on NMDAR desensitization (in words) (GluN1A/GluN2A NMDARs; 10 mM BAPTA in pipette, GFP controls and APP-expressing cells): did not appear to modify the degree of NMDAR desensitization; effect on NMDAR current amplitude (in words) (GluN1A/GluN2A NMDARs; 10 mM BAPTA in pipette, GFP-expressing cells): declined in amplitude by a similar extent to that seen with low EGTA concentrations
cyclosporin A [CsA] | – | – | – | – | – | – | – | effect on NMDAR desensitization (in words) (GluN1A/GluN2A NMDARs; CsA 1 μM, GFP-expressing cells, relative to untreated cells): desensitization appeared modestly enhanced; ss/p ratio in APP-expressing cells (in words) (GluN1A/GluN2A NMDARs; CsA 1 μM, low intracellular EGTA): no longer different (and modestly elevated) compared to GFP-expressing cells
GVVIATVIVITLVMLKK [APP-17mer] | – | – | – | – | – | – | – | CaN binding (in words) ([1]; Fig. 1H): minimal affinity for CaN; percent of CaN recovered (signal for each/signal for CaN standard * 40%) ([1]; Fig. 1H, 10 μg N-terminally biotinylated peptide on streptavidin beads, 200 ng GST-CaN, 30 min, 4 °C, Western blot, mean (n=7; APP-17mer n=3)): 2.14%
MAGPHTMIVITGPHEE [V640M, biotinylated APP peptide incorporating the FAD mutation V640M] | 42.81% | 69.77% | 35.90% | 61.53% | 25.01% | 31.86% | 32.78% | –
MAGPHTVIIITGPHEE [V642I, biotinylated APP peptide incorporating the FAD mutation V642I] | 44.18% | 54.96% | 45.24% | 82.71% | 28.44% | 26.76% | 26.97% | –
